Experiment [1] concerns the target T1, His-GST-TVMV-hRIPK1(1-324) (Homo sapiens, UniProt Q13546).
T1 construct: The coding region of human RIPK1(1-324) flanked by NdeI site at 5′ end; made in house; host or cells: Spodoptera frugiperda Sf9 insect cells (baculovirus, Bac-to-Bac)
T1 sequence (Q13546 1-324): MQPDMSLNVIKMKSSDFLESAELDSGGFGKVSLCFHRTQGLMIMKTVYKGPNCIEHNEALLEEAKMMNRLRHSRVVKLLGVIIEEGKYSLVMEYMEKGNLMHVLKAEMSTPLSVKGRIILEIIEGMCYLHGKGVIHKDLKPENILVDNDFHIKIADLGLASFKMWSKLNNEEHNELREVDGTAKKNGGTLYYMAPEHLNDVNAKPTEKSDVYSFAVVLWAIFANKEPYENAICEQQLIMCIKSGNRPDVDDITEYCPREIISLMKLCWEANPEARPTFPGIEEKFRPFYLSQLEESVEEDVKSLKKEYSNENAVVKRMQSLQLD
In words: biochemical. Format: binding. Particulars: HTRF probe displacement, 1 h at rt; read-out: RIPK1 IC50. Background: In TR-FRET formats the signal depends on donor and acceptor labels being close together.

The target in experiment [2] is GST-tagged PIK3Cδ in complex with PIK3R1 (Homo sapiens, UniProt O00329). In words: PI3Kδ HTRF binding assay. Particulars: read-out: PIK3CD IC50.
GST-tagged PIK3Cδ in complex with PIK3R1, sequence (O00329 whole entry): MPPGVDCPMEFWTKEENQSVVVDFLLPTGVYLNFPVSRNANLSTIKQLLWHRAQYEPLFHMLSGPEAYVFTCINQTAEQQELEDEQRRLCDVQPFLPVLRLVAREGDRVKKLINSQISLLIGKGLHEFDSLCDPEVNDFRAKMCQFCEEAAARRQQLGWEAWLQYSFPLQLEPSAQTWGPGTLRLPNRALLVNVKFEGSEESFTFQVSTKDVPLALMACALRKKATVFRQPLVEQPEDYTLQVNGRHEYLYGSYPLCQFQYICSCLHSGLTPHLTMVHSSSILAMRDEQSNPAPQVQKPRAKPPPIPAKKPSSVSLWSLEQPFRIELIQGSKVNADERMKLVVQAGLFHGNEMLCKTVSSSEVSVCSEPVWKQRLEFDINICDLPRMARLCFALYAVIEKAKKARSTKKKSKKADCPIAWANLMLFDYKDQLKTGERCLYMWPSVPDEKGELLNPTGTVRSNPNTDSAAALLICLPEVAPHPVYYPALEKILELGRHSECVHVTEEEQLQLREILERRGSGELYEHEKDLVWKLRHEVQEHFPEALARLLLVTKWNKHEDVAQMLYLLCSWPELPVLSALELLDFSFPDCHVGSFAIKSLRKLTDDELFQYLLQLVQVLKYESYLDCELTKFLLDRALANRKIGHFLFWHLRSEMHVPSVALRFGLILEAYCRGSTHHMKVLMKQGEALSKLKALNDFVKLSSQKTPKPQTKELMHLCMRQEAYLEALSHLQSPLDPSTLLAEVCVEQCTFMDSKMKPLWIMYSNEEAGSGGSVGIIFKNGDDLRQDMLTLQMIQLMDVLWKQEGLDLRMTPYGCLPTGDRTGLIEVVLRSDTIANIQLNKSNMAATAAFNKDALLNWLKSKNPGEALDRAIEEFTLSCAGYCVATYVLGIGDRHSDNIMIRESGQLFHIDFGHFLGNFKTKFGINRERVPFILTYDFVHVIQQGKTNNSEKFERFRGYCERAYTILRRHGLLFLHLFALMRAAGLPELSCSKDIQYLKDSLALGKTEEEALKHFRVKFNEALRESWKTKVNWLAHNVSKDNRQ
GST-tagged PIK3Cδ in complex with PIK3R1, sequence (P27986 whole entry partner): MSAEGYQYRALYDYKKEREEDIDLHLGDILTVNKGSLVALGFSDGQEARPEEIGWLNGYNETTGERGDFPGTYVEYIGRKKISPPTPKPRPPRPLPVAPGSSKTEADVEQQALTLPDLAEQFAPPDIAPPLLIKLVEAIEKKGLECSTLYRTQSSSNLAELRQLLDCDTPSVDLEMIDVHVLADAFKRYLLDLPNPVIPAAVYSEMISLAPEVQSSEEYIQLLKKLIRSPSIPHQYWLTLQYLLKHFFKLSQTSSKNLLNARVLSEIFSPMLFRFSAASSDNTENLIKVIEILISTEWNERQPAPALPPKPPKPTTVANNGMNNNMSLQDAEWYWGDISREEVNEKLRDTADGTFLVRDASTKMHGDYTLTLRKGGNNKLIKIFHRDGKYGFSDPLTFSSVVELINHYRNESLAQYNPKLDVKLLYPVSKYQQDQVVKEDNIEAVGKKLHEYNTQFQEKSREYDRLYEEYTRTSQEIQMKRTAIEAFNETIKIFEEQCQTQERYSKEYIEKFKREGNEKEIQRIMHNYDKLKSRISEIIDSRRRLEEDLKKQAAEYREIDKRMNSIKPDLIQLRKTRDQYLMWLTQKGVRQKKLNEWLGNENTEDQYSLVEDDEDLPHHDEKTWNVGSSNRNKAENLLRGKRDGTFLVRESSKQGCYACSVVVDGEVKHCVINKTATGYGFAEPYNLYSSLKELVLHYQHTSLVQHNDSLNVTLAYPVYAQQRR
Experiment [3] has as its system MLKL phosphorylation in HT29-L23 human colorectal adenocarcinoma cells. In words: MLKL phosphorylation high-content assay. Format: cell-based. The note with it: 6 h, necroptosis induced with TNFα, SMAC mimetic and Z-VAD, 6 h, maximal inhibition defined by Nec1s.
Where [4] appears, read: HTRF probe displacement, 1 h at rt.
Where [5] appears, read: Homo sapiens, read-out: pMLKL IC50, HT29-L23 cells.
Setting [6] is: read-out: pMLKL IC50, HT29-L23 cells.

Read-outs that look alike come from different tables or passages of the source.

For `Cc1ccc(-c2ccn3nc(N)nc3c2F)c(F)c1C(=O)NCC[C@H](O)c1ccc(Cl)cc1` [Example 132, (S)-3-(2-amino-8-fluoro-[1,2,4]triazolo[1,5-a]pyridin-7-yl)-N-(3-(4-chlorophenyl)-3-hydroxypropyl)-2-fluoro-6-methylbenzamide], the IC50 in experiment [1] was 8.4 nM; in experiment [2] (setting [4]) it was above 15000 nM; in experiment [3] (setting [5]), 1.1 nM.

Consider `Cc1cc(F)c(-c2ccn3nc(N)nc3c2)cc1C(=O)NCCC(O)c1ccc(Cl)cn1` (single isomer, unassigned) [Example 7, 5-(2-amino-[1,2,4]triazolo[1,5-a]pyridin-7-yl)-N-(3-(5-chloropyridin-2-yl)-3-hydroxypropyl)-4-fluoro-2-methylbenzamide], for which the IC50 in experiment [1] was 10 nM; in experiment [2] (setting [4]) it was above 15000 nM; in experiment [3] (setting [6]), 13 nM.

As for `Cc1ccc(-c2ccn3nc(N)nc3c2)c(F)c1C(=O)NCC(F)(F)C(C)(O)c1ccc(Cl)cc1` (single isomer, unassigned) [Example 222, 3-(2-amino-[1,2,4]triazolo[1,5-a]pyridin-7-yl)-N-(3-(4-chlorophenyl)-2,2-difluoro-3-hydroxybutyl)-2-fluoro-6-methylbenzamide], the IC50 in experiment [1] is 3.2 nM; in experiment [2] (setting [4]) it was above 15000 nM; in experiment [3] (setting [6]), 1 nM.

Consider `[2H]C([2H])(CC([2H])(O)c1ccc(Cl)cc1)NC(=O)c1c(C)ccc(-c2ccn3nc(N)nc3c2)c1F` (racemic) [Example 14, 3-(2-amino-[1,2,4]triazolo[1,5-a]pyridin-7-yl)-N-(3-(4-chlorophenyl)-3-hydroxypropyl-1,1,3-d3)-2-fluoro-6-methylbenzamide], for which the figures for the IC50 in experiment [1], in experiment [2] (setting [4]) and in experiment [3] (setting [5]) were 1.1 nM, above 15000 nM and 1.1 nM, respectively.

Consider `Cc1ccc(-c2ccn3nc(N)nc3c2)c(F)c1C(=O)NCC(F)(F)C(O)c1ccc(F)cn1` (stereo not drawn) [Example 115, 3-{2-amino-[1,2,4]triazolo[1,5-a]pyridin-7-yl}-N-[2,2-difluoro-3-(5-fluoropyridin-2-yl)-3-hydroxypropyl]-2-fluoro-6-methylbenzamide], for which the IC50 in experiment [1] is 3.6 nM; in experiment [2], above 15000 nM; in experiment [3] (HT29-L23 cells, read-out: pMLKL IC50), 1.4 nM.

`COc1ccc(-c2ccn3nc(N)nc3c2)c(F)c1C(=O)NCC(F)(F)C(O)c1ccc(Cl)c(Cl)c1` (stereo not drawn) [Example 267, 3-{2-amino-[1,2,4]triazolo[1,5-a]pyridin-7-yl}-N-[3-(3,4-dichlorophenyl)-2,2-difluoro-3-hydroxypropyl]-2-fluoro-6-methoxybenzamide]: the values for the IC50 in experiment [1], in experiment [2] (setting [4]) and in experiment [3] (setting [6]) were 2.8 nM, above 15000 nM and 1 nM, respectively.

Consider `Nc1nc2cc(-c3ccc(Cl)c(C(=O)NCC(F)C(O)c4ccc(F)cc4)c3F)ccn2n1` (stereo not drawn) [Example 130, 3-(2-amino-[1,2,4]triazolo[1,5-a]pyridin-7-yl)-6-chloro-2-fluoro-N-(2-fluoro-3-(4-fluorophenyl)-3-hydroxypropyl)benzamide enantiomeric mixture 1], for which the IC50 in experiment [1] was 7.4 nM; in experiment [2] (setting [4]), 4900 nM; in experiment [3] (setting [5]), 2.9 nM.

In the case of `Cc1ccc(-c2ccn3nc(N)nc3c2)c(F)c1C(=O)NCC(F)(F)C(O)c1ccc(F)c(F)c1` (single isomer, unassigned) [Example 199, 3-(2-amino-[1,2,4]triazolo[1,5-a]pyridin-7-yl)-N-(3-(3,4-difluorophenyl)-2,2-difluoro-3-hydroxypropyl)-2-fluoro-6-methylbenzamide], the values for the IC50 in experiment [1], in experiment [2] (setting [4]) and in experiment [3] (setting [6]) were 1.4 nM, above 15000 nM and 0.6 nM, respectively.

For the molecule `Nc1nc2cc(-c3ccc(Cl)c(C(=O)NCC(F)(F)C(O)c4ccc(Cl)c(Cl)c4)c3F)ccn2n1` (single isomer, unassigned) [Example 265, 3-{2-amino-[1,2,4]triazolo[1,5-a]pyridin-7-yl}-6-chloro-N-[3-(3,4-dichlorophenyl)-2,2-difluoro-3-hydroxypropyl]-2-fluorobenzamide], the values for the IC50 in experiment [1], in experiment [2] (setting [4]) and in experiment [3] (setting [6]) were 4.1 nM, above 15000 nM and 3.6 nM, respectively.

Take `COc1ccc(-c2ccn3nc(N)nc3c2)c(F)c1C(=O)NCC(F)(F)C(O)c1ccc(Cl)c(Cl)c1` (stereo not drawn) [Example 268, 3-{2-amino-[1,2,4]triazolo[1,5-a]pyridin-7-yl}-N-[3-(3,4-dichlorophenyl)-2,2-difluoro-3-hydroxypropyl]-2-fluoro-6-methoxybenzamide]: the half-maximal inhibitory concentration (IC50) in experiment [1] was determined as 3.8 nM; in experiment [2] (setting [4]) it was 8800 nM; in experiment [3] (setting [6]), 4.3 nM.

For the molecule `Nc1nc2cc(-c3ccc(Cl)c(C(=O)NCC(F)(F)C(O)c4ccc(OC(F)F)cc4)c3F)ccn2n1` (stereo not drawn) [Example 186, 3-(2-amino-[1,2,4]triazolo[1,5-a]pyridin-7-yl)-6-chloro-N-(3-(4-(difluoromethoxy)phenyl)-2,2-difluoro-3-hydroxypropyl)-2-fluorobenzamide], the concentration for half-maximal inhibition (IC50) was determined as 2.9 nM in experiment [1], 12000 nM in experiment [2] (setting [4]) and 0.2 nM in experiment [3] (setting [6]).

With `Cc1ccc(-c2ccn3nc(N)nc3c2)c(F)c1C(=O)NCC(F)(F)C(O)c1ccc(F)c(F)c1` (single isomer, unassigned) [Example 198, 3-(2-amino-[1,2,4]triazolo[1,5-a]pyridin-7-yl)-N-(3-(3,4-difluorophenyl)-2,2-difluoro-3-hydroxypropyl)-2-fluoro-6-methylbenzamide], the results for the half-maximal inhibitory concentration (IC50) in experiment [1], in experiment [2] (setting [4]) and in experiment [3] (setting [6]) were 6.4 nM, above 15000 nM and 1.3 nM, respectively.

For `Cc1ccc(-c2ccn3nc(N)nc3c2)c(F)c1C(=O)NCC(F)(F)[C@H](O)c1ccc(F)cc1` (single isomer, unassigned) [Example 31], the values for the IC50 in experiment [1], in experiment [2] (setting [4]) and in experiment [3] (setting [5]) were 2.4 nM, above 15000 nM and 0.8 nM, respectively.

For `Cc1ccc(-c2ccn3nc(N)nc3c2)c(F)c1C(=O)NC(C)CC(O)c1ccc(F)cc1` (single isomer, unassigned) [Example 38, 3-(2-amino-[1,2,4]triazolo[1,5-a]pyridin-7-yl)-2-fluoro-N-(4-(4-fluorophenyl)-4-hydroxybutan-2-yl)-6-methylbenzamide], the results for the IC50 in experiment [1], in experiment [2] (setting [4]) and in experiment [3] (setting [6]) were 4.7 nM, above 15000 nM and 6 nM, respectively.

As a reminder, the IC50 is the point on the concentration scale where inhibition reaches its midpoint.

Values taken from patent US11767322B2 (BRISTOL-MYERS SQUIBB COMPANY, priority 2020, dated 2023).
